Results on 24 substances are retold here after patent US20240360179A1, “STAPLED PEPTIDES AND METHODS THEREOF” (FOG PHARMACEUTICALS, INC., priority 2021, published 2024).

pIC50: −log10 of the molar value.

This assay concerns COLO320DM cells. Nature of the assay: COLO320DM proliferation assay (CellTiter-Glo). The format is cell-based, human. Conditions: read-out: COLO320DM Proliferation Abs IC50. How it is done:
COLO320DM proliferation assay IC50: In some embodiments, inhibition of cell proliferation by provided technologies were assessed using cell lines related to or from certain conditions, disorders or diseases. In some embodiments, cell proliferation was assessed in COLO320DM cells. In some embodiments, assessment was performed using the following procedure: On Day 1, cultured COLO320DM cells in a T75 flask were trypsinized in 3 mL of 0.250% trypsin/EDTA for 5 min and quenched with 10 mL RPMI-1640+4% HI FBS assay media. The cells were spun down at 1200 rpm for 5 min, the cell pellet collected and re-suspended at 5000 cells/mL in assay media. Using a Combi liquid handler, cells were dispensed (50 uL, 250 cells/well) into three 384 well plates. Plates were incubated at 37° C., 5% CO2 for 18-22 h. On day 2, compounds were added. A liquid handling system was used to prepare the compound dilution and dispense compound into assay plates. The compounds were serially diluted 1/2 in 90% DMSO to create a 7 point dose curve. From compound plate, 100 nL of compound were dispensed directly into wells of the assay plates to create a dose curve starting at 20 uM and ending at 313 nM. Assay plates were incubated at 37° C., 5% CO2 for 96 h. On day 6, assay plates were removed from the incubator and allowed to sit at room temperature for 30 min. Using a liquid handler, 20 uL of CellTiter Glo reagent was added to each well. The assay plates were shaken for 2 min and allowed to sit on the bench for 10-15 minutes. The assay plates were read using the CellTiter Glo protocol on a GloMax microplate reader, and the data analyzed using GraphPad Prism. Activities of various agents, including various stapled peptides in Table E2, were confirmed.
In some embodiments, an assessment was performed as follows. On day 0, cells were seeded in cell culture media (RPMI1640, 4% FBS) in a 96-well plate at desired density, typically at 1000 cells/well. On day 1, 10 mM agent stock solution (in DMSO) was first serially diluted into DMSO at 1:2 ratio, followed by diluting with cell culture media at two times of the final concentrations. Finally, agent-containing media were introduced to cell culture wells already having the same volume of cell culture media. Cells were incubated with agents for desired days before lysed for CellTiter-Glo® Luminescent Cell Viability Assay according to the manufacture instruction (Promega, G7570). Luminescent signal was obtained from a microplate reader (GloMax, Promega). Cell viability data was expressed as % relative to DMSO control wells.
Proliferation Assay. In some embodiments, various proliferation assays are utilized to characterize or assess provided technologies. In some embodiments, on day 0, cells were seeded in cell culture media in a 96-well plate at desired density, typically at 1000 cells/well. On day 1, 10 mM compound stock solution was first serially diluted into DMSO, followed by diluting with cell culture media at two times of the final concentrations. Finally, compound-containing media were introduced to cell culture wells already having the same volume of cell culture media. Cells were incubated with compounds for desired days before lysed for CTG according to the manufacture instruction (G7570, Promega). Luminescent signal was obtained from a microplate reader (GloMax, Promega).
(In general: ATP-based viability assays read luminescence as a measure of living cells.)
For the substance “Ac-PL3-Asp-Ile-B5-Asp-3COOHF-Aib-Ala-Phe-GlnR*3-PyrS2-Phe-34ClF-AsnEDA*3-NH2 [I-1376]”, the pIC50 was ≥ 5.00.

On to “Ac-PL3-Asp-Ile-B5-Asp-3COOHF-Aib-Ala-Phe-GlnR*3-PyrS2-Phe-34ClF-Lys*3-NH2 [I-1367]”, for which the pIC50 is ≥ 5.00.

Take “Ac-PL3-Asp-Ile-B5-Asp-3COOHF-Aib-Ala-Phe-Lys*3-PyrS2-2FF-34ClF-GlnR*3-NH2 [I-1539]”: the pIC50 was ≥ 5.00.

For “Ac-PL3-Asp-Ile-B5-Asp-3COOHF-Aib-Ala-Phe-Lys*3-PyrS2-2MeF-34ClF-GlnR*3-NH2 [I-1508]”, the pIC50 is ≥ 5.00.

In the case of “Ac-PL3-Asp-Ile-B5-Asp-3COOHF-Aib-Ala-Phe-Lys*3-PyrS2-Phe-3BrF-GlnR*3-NH2 [I-1604]”, the pIC50 was ≥ 5.00.

Turning to “Ac-PL3-Asp-Ile-B5-Asp-3COOHF-Aib-Ala-Phe-Lys*3-PyrS2-Phe-3ClF-GlnR*3-NH2 [I-1598]”, the pIC50 is ≥ 5.00.

On to “Ac-PL3-Asp-Ile-B5-Asp-3COOHF-Aib-Ala-Phe-Lys*3-PyrS2-Phe-34ClF-hGlnR*3-NH2 [I-1371]”, for which the pIC50 is < 4.70.

With “Ac-PL3-Asp-Ile-B5-Asp-3COOHF-Aib-Ala-Phe-TriAzLys*3-PyrS2-Phe-34ClF-sCH2S*3-NH2 [I-1858]”, the pIC50 was ≥ 5.00.

In the case of “Ac-PL3-Asp-Ile-B5-Asp-3COOHF-Aib-Ala-Phe-TriAzOrn*3-PyrS2-Phe-34ClF-sCH2S*3-NH2 [I-1860]”, the pIC50 was ≥ 5.00.

As for “Ac-PL3-Asp-Ile-B5-Asp-3COOHF-Aib-Ala-Phe-hGlnR*3-PyrS2-Phe-34ClF-Lys*3-NH2 [I-1372]”, the pIC50 was ≥ 5.00.

In the case of “Ac-PL3-Asp-Ile-B5-Asp-3COOHF-Aib-Ala-Phe-sAla*3-PyrS2-Phe-34ClF-TriAzLys*3-NH2 [I-1857]”, the pIC50 is 4.70 to 5.00.

Consider “Ac-PL3-Asp-Ile-B5-Asp-3COOHF-Aib-Ala-Phe-sCH2S*3-PyrS2-Phe-34ClF-TriAzLys*3-NH2 [I-1859]”, for which the pIC50 is ≥ 5.00.

In the case of “Ac-PL3-Asp-Ile-B5-Asp-3COOHF-Aib-Ala-Phe-sCH2S*3-PyrS2-Phe-34ClF-TriAzOrn*3-NH2 [I-1862]”, the pIC50 is ≥ 5.00.

Turning to “Ac-PL3-Asp-Ile-B5-Asp-3COOHF-Ala-Ala-Phe-Lys*3-PyrS2-3Thi-BztA-GlnR*3-Ala-NH2 [I-970]”, the pIC50 was ≥ 5.00.

For “Ac-PL3-Asp-Ile-B5-Asp-3COOHF-Ala-Ala-Phe-TriAzLys*3-PyrS2-Phe-34ClF-sAla*3-NH2 [I-1863]”, the pIC50 is ≥ 5.00.

Consider “Ac-PL3-Asp-Ile-B5-Asp-3COOHF-Ala-Ala-Phe-TriAzLys*3-PyrS2-Phe-34ClF-sCH2S*3-NH2 [I-1865]”, for which the pIC50 is ≥ 5.00.

As to “Ac-PL3-Asp-Ile-B5-Asp-3COOHF-Ala-Ala-Phe-sAla*3-PyrS2-Phe-34ClF-TriAzLys*3-NH2 [I-1864]”, the pIC50 is < 4.70.

For the substance “Ac-PL3-Asp-Ile-B5-Asp-3COOHF-Ala-Ala-Phe-sCH2S*3-PyrS2-Phe-34ClF-TriAzLys*3-NH2 [I-1866]”, the pIC50 was 4.70 to 5.00.

Regarding “Ac-PL3-Asp-Ile-B5-Asp-3COOHF-Ala-Ala-Phe-sCH2S*3-PyrS2-Phe-34ClF-TriAzOrn*3-NH2 [I-1869]”, the pIC50 is ≥ 5.00.

For “Ac-PL3-Asp-Ile-B5-Asp-3COOHF-CyLeu-Ala-Phe-Lys*3-PyrS2-3Thi-34ClF-GlnR*3-NH2 [I-1040]”, the pIC50 was ≥ 5.00.

In the case of “Ac-PL3-Asp-Ile-B5-Asp-3COOHF-CyLeu-Ala-Phe-Lys*3-PyrS2-3Thi-34ClF-GlnR*3-Val-Thr-Ala-NH2 [I-1268]”, the pIC50 was ≥ 5.00.

For the substance “Ac-PL3-Asp-Ile-B5-Asp-3COOHF-CyLeu-Ala-Phe-Lys*3-PyrS2-Phe-34ClF-GlnR*3-NH2 [I-1052]”, the pIC50 was ≥ 5.00.

“Ac-PL3-Asp-Ile-B5-Asp-3COOHF-Phe-Ala-Phe-Lys*3-PyrS2-3Thi-34MeF-GlnR*3-NH2 [I-1102]”: the pIC50 was ≥ 5.00.

Turning to “Ac-PL3-Asp-Ile-B5-Asp-3COOHF-Phe-Ala-Phe-Lys*3-PyrS2-Phe-34MeF-GlnR*3-Ala-NH2 [I-1106]”, the pIC50 is ≥ 5.00.
